Molecular target: Human GPR40 (Homo sapiens (Human), UniProt O14842)
Assay: Inositol Phosphate Turnover (IP1) Assay 1, HEK cells stably expressing human GPR40, 3H-inositol SPA
Format: cell-based
Details: HEK cells stably expressing human GPR40, 96-well
Description: Human and mouse GPR40 stable cell-lines were generated in CHO cells stably expressing NFAT BLA (Beta-lactamase). A human GPR40 stable cell-line was generated in HEK cells stably expressing the aequorin expressing reporter. The expression plasmids were transfected using lipofectamine (Life Technologies) following manufacturer's instructions. Stable cell-lines were generated following drug selection.
The assay was performed in 96-well format. HEK cells stably expressing human GPR40 were plated to be 60-80% confluent within 72 h. After 72 h, the plates were aspirated and the cells washed with inositol-free DMEM (ICN). The wash media was replaced with 150 μL of 3H-inositol labeling media (inositol-free media containing 0.4% human albumin or 0.4% mouse albumin, 1× pen/strep antibiotics, glutamine, 25 mM HEPES to which was added 3H-myo-inositol NEN #NET114A 1 mCi/mL, 25 Ci/mmol diluted 1:150 in loading media with a final specific radioactivity of 1 μCi/150 μL). Alternatively, the human and mouse albumin can be added after the overnight labeling step before the addition of LiCl.
The assay was typically run the next day after 18 h labeling. On the day of the assay, 5 μL of 300 mM LiCl was added to all wells and incubated at 37 degrees for 20 min. 0.75 μL of each compound was added and incubated with the cells for 60 min at 37 degrees. The media was then aspirated off and the assay terminated with the addition of 60 μL 10 mM formic acid. The cells were lysed for 60 min at room temperature. 15-30 μL of lysate was mixed with 70 μL/1 mg YSi SPA beads (Amersham) in clear bottom Isoplates. The plates were shaken for 2 h at room temperature. Beads were allowed to settle and the plates were counted in the Wallac Microbeta.

Sequence of Human GPR40 (O14842 whole entry): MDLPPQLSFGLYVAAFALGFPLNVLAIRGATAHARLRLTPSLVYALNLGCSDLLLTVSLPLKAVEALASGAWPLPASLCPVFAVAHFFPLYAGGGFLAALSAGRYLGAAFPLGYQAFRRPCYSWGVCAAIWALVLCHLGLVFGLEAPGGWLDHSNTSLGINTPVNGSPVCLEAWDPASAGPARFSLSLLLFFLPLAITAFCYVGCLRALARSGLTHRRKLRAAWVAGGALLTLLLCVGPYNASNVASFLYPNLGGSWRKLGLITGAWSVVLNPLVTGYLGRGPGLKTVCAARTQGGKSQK

| Structure (SMILES) | EC50 [nM] |
| --- | --- |
| COc1cccc(F)c1OC1CC(COc2cccc([C@H](C3CC3)[C@H](C)C(=O)O)c2)C1 (single isomer, unassigned) [Example 130] | 139 |
| C[C@H](C(=O)O)[C@H](c1cccc(OCC2CC(Oc3ccccc3Cl)C2)c1)C1CC1 (single isomer, unassigned) [Example 133] | 152 |
| C[C@H](C(=O)O)[C@H](c1cccc(OCC2CC(Oc3ccccc3Cl)C2)c1)C1CC1 (single isomer, unassigned) [Example 134] | 85 |
| CC(c1cc(C(F)(F)F)ccc1C(F)(F)F)N1CCC(COc2cccc([C@H](C3CC3)[C@H](C)C(=O)O)c2)CC1 (some centres unmarked) [Example 35] | 20 |
| CCC(c1cc(C(F)(F)F)ccc1C(F)(F)F)N1CC(COc2cccc([C@H](C3CC3)[C@H](C)C(=O)O)c2)C1 (some centres unmarked) [Example 36] | 12 |
| C[C@H](C(=O)O)[C@H](c1cccc(OCC2CCN(c3cccc(C(F)(F)F)n3)CC2)c1)C1CC1 [Example 37] | 177 |
| C[C@H](C(=O)O)[C@H](c1cccc(OCC2CCN(c3ncccc3C(F)(F)F)CC2)c1)C1CC1 [Example 38] | 13 |
| C[C@H](C(=O)O)[C@H](c1cccc(OCC2CCN(c3cc(C(F)(F)F)ccn3)CC2)c1)C1CC1 [Example 39] | 218 |
| C[C@H](C(=O)O)[C@H](c1cccc(OCC2CCN([C@H](C)c3cc(C(F)(F)F)ccc3C(F)(F)F)C2)c1)C1CC1 (some centres unmarked) [Example 40] | 25 |
| C[C@H](C(=O)O)[C@H](c1cccc(OCC2CCN([C@@H](C)c3cc(C(F)(F)F)ccc3C(F)(F)F)C2)c1)C1CC1 (some centres unmarked) [Example 41] | 23 |
| COc1cccc(OC2CC(COc3cccc([C@H](C4CC4)[C@H](C)C(=O)O)c3)C2)c1 (stereo partly drawn) [Example 64, (2S,3R)-3-Cyclopropyl-3-(3-((3-(3-methoxyphenoxy)cyclobutyl)methoxy)phenyl)-2-methylpropanoic acid] | 60 |
| C[C@H](C(=O)O)[C@H](c1cccc(OCC2CC2Cc2ccccc2)c1)C1CC1 (some centres unmarked) [Example 67] | 408 |
| C[C@H](C(=O)O)[C@H](c1cccc(OCC2CC2c2ccccc2)c1)C1CC1 (some centres unmarked) [Example 68] | 304 |
| COc1cccc(C2CC2COc2cccc([C@H](C3CC3)[C@H](C)C(=O)O)c2)c1 (some centres unmarked) [Example 69] | 166 |
| COc1cccc(C[C@H]2C[C@@H]2COc2cccc([C@H](C3CC3)[C@H](C)C(=O)O)c2)c1 [Example 70] | 146 |
| COc1cccc(C[C@@H]2C[C@H]2COc2cccc([C@H](C3CC3)[C@H](C)C(=O)O)c2)c1 [Example 71] | 187 |
| C[C@H](C(=O)O)[C@H](c1cccc(OCC2CC(c3ccccc3)C2)c1)C1CC1 (some centres unmarked) [Example 72] | 201 |
| COc1ccc(F)c(OC2CC(COc3cccc([C@H](C4CC4)[C@H](C)C(=O)O)c3)C2)c1 (some centres unmarked) [Example 73] | 43 |
| COc1ccc(F)c([C@H]2C[C@@H]2COc2cccc([C@H](C3CC3)[C@H](C)C(=O)O)c2)c1 [Example 74] | 56 |
| COc1ccc(F)c([C@@H]2C[C@H]2COc2cccc([C@H](C3CC3)[C@H](C)C(=O)O)c2)c1 [Example 75] | 34 |
| COc1cc([C@@H]2C[C@H]2COc2cccc([C@H](C3CC3)[C@H](C)C(=O)O)c2)c(F)cn1 [Example 76] | 138 |
| COc1cccc(C2=CCC(COc3cccc([C@H](C4CC4)[C@H](C)C(=O)O)c3)C2)c1 (stereo partly drawn) [Example 78, (2 S,3R)-3-cyclopropyl-3-(3-((3-(3-methoxyphenyl)cyclopent-3-en-1 yl)methoxy)phenyl)-2-methylpropanoic acid] | 75 |
| COc1cccc([C@H]2CC[C@@H](COc3cccc([C@H](C4CC4)[C@H](C)C(=O)O)c3)C2)c1 [Example 79, (2S,3R)-3-cyclopropyl-3-(3-(((1R,3 S)-3-(3-methoxyphenyl)cyclopentyl)methoxy)phenyl)-2-methylpropanoic acid] | 118 |
